Where “and” joins values, the source holds several entries; their conditions need not be identical. Equal values may be shown once. Inconclusive results and toxic doses are left out.
System: BDF1 mice, P388 leukemia ip, median survival T/C
Assay: NCI In Vivo Anticancer Drug Screen. Data for tumor model P388 Leukemia (intraperitoneal) in B6D2F1 (BDF1) mice
Settings: endpoint: median survival time, higher = longer survival
Procedure, shortened: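 Vehicle-dosed animals serve as the reference; survival of compound-dosed, tumour-implanted mice is divided by it.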

[1] = dose: 5.0 mg/kg/injection, schedule: Q01DX010 (ip), vehicle: saline
[2] = dose: 100.0 mg/kg/injection, schedule: Q01DX009 (ip), vehicle: saline
[3] = dose: 12.5 mg/kg/injection, schedule: Q01DX009 (ip), vehicle: saline with Tween-80
[4] = dose: 25.0 mg/kg/injection, schedule: Q01DX009 (ip), vehicle: saline with Tween-80
[5] = dose: 50.0 mg/kg/injection, schedule: Q01DX009 (ip), vehicle: saline with Tween-80
[6] = dose: 100.0 mg/kg/injection, schedule: Q01DX009 (ip), vehicle: saline with Tween-80
[7] = dose: 200.0 mg/kg/injection, schedule: Q01DX009 (ip), vehicle: saline with Tween-80
[8] = dose: 100.0 mg/kg/injection, schedule: Q04DX003 (ip), vehicle: Klucel (hydroxypropylcellulose) (HPC)
[9] = dose: 200.0 mg/kg/injection, schedule: Q04DX003 (ip), vehicle: Klucel (hydroxypropylcellulose) (HPC)
[10] = dose: 400.0 mg/kg/injection, schedule: Q04DX003 (ip), vehicle: Klucel (hydroxypropylcellulose) (HPC)
[11] = dose: 50.0 mg/kg/injection, schedule: Q01DX005 (ip), vehicle: saline with Tween-80
[12] = dose: 100.0 mg/kg/injection, schedule: Q01DX005 (ip), vehicle: saline with Tween-80
[13] = dose: 200.0 mg/kg/injection, schedule: Q01DX005 (ip), vehicle: saline with Tween-80
[14] = dose: 100.0 mg/kg/injection, schedule: Q04DX003 (ip), vehicle: saline with Tween-80
[15] = dose: 400.0 mg/kg/injection, schedule: Q04DX003 (ip), vehicle: saline with Tween-80

With `O=c1[nH]c(=O)n(C2CC(O)C(CO)O2)cc1F` (centres undefined) the T/C [1] was 113 % of control, the T/C (dose: 15.0 mg/kg/injection, schedule: Q03HX024 (ip), vehicle: saline) was 172 % of control and the T/C (dose: 22.0 mg/kg/injection, schedule: Q03HX024 (ip), vehicle: saline) was 186 % of control. The T/C (dose: 25.0 mg/kg/injection, schedule: Q01DX009 (ip), vehicle: saline) was 186 % of control, the T/C (dose: 33.0 mg/kg/injection, schedule: Q01DX009 (ip), vehicle: saline) was 173 % of control and the T/C (dose: 34.0 mg/kg/injection, schedule: Q03HX024 (ip), vehicle: saline) was 200 % of control. For the same compound, the T/C (dose: 40.0 mg/kg/injection, schedule: Q01DX009 (ip), vehicle: water) was 168 % of control and 172 % of control and 200 % of control, the T/C (dose: 44.0 mg/kg/injection, schedule: Q01DX009 (ip), vehicle: saline) was 166 % of control and the T/C (dose: 49.0 mg/kg/injection, schedule: Q01DX009 (ip), vehicle: saline) was 202 % of control. For the same compound, the T/C (dose: 50.0 mg/kg/injection, schedule: Q01DX009 (ip), vehicle: saline) was 218 % of control, the T/C (dose: 50.0 mg/kg/injection, schedule: Q03HX024 (ip), vehicle: saline) was 215 % of control and the T/C (dose: 60.0 mg/kg/injection, schedule: Q01DX009 (ip), vehicle: water) was 190 % of control (2×) and 195 % of control. For the same compound, the T/C (dose: 67.0 mg/kg/injection, schedule: Q01DX009 (ip), vehicle: saline) was 185 % of control, the T/C (dose: 73.0 mg/kg/injection, schedule: Q01DX009 (ip), vehicle: saline) was 202 % of control and the T/C (dose: 74.0 mg/kg/injection, schedule: Q01DX009 (ip), vehicle: saline) was 169 % of control and 183 % of control and 186 % of control. For the same compound, the T/C (dose: 80.0 mg/kg/injection, schedule: Q01DX009 (ip), vehicle: water) was 190 % of control and 200 % of control and 222 % of control, the T/C [2] was 109 % of control and 206 % of control and the T/C (dose: 155.0 mg/kg/injection, schedule: Q04DX004 (ip), vehicle: saline) was 157 % of control. The T/C (dose: 165.0 mg/kg/injection, schedule: Q01DX009 (ip), vehicle: saline) was 109 % of control, the T/C (dose: 205.0 mg/kg/injection, schedule: Q01DX001 (ip), vehicle: saline) was 124 % of control and the T/C (dose: 233.0 mg/kg/injection, schedule: Q04DX004 (ip), vehicle: saline) was 170 % of control. The T/C (dose: 350.0 mg/kg/injection, schedule: Q04DX004 (ip), vehicle: saline) was 190 % of control, the T/C (dose: 525.0 mg/kg/injection, schedule: Q04DX004 (ip), vehicle: saline) was 110 % of control and the T/C (dose: 685.0 mg/kg/injection, schedule: Q01DX001 (ip), vehicle: saline) was 157 % of control. For the same compound, the T/C (dose: 1025.0 mg/kg/injection, schedule: Q01DX001 (ip), vehicle: saline) was 172 % of control.
In the case of `Cc1cnc(C#N)c(-n2ccnc2)n1`, the T/C (dose: 12.5 mg/kg/injection, schedule: Q01DX009 (ip), vehicle: water) is reported as 92 % of control, the T/C (dose: 25.0 mg/kg/injection, schedule: Q01DX009 (ip), vehicle: water) is reported as 100 % of control and the T/C (dose: 50.0 mg/kg/injection, schedule: Q01DX009 (ip), vehicle: water) is reported as 95 % of control. The T/C (dose: 100.0 mg/kg/injection, schedule: Q01DX009 (ip), vehicle: water) was 100 % of control and the T/C (dose: 200.0 mg/kg/injection, schedule: Q01DX009 (ip), vehicle: water) was 101 % of control.
With `Clc1ccc(CBr)c2ccccc12` the T/C [3] was 108 % of control, the T/C [4] was 106 % of control and the T/C [5] was 110 % of control.
In the case of `O=c1nc(Oc2ccccc2)nc2ccccn12`, the T/C [5] is reported as 105 % of control, the T/C [6] is reported as 97 % of control and the T/C [7] is reported as 102 % of control.
In the case of `COC(=O)c1ccccc1NC(=O)NCCBr`, the T/C [8] is reported as 90 % of control, the T/C [9] is reported as 100 % of control and the T/C [10] is reported as 104 % of control.
With `CN(C)c1ccc(/C=C/c2cccc(/C=C/c3ccc(N(C)C)cc3)[n+]2[O-])cc1` the T/C [11] was 91 % of control, the T/C [12] was 89 % of control and the T/C [13] was 93 % of control.
In the case of `CCCCCC#CC1OC1(C)C` (centres undefined), the T/C [3] is reported as 97 % of control and 100 % of control, the T/C [4] is reported as 101 % of control and 103 % of control and the T/C [5] is reported as 108 % of control and 116 % of control. For the same compound, the T/C [6] was 108 % of control and 117 % of control and 121 % of control.
`Cn1c2ccccc2c(=S)c2c(O)cc3c(c21)C=CC(C)(C)O3` was tested, and the T/C [11] was 89 % of control, the T/C [12] was 90 % of control and the T/C [13] was 89 % of control.
In the case of `CC12OC1C(=O)c1ccccc1C2=O` (centres undefined), the T/C (dose: 0.75 mg/kg/injection, schedule: Q01DX009 (ip), vehicle: Klucel (hydroxypropylcellulose) (HPC)) is reported as 87 % of control, the T/C (dose: 1.5 mg/kg/injection, schedule: Q01DX009 (ip), vehicle: Klucel (hydroxypropylcellulose) (HPC)) is reported as 100 % of control and the T/C (dose: 2.5 mg/kg/injection, schedule: Q01DX009 (ip), vehicle: Klucel (hydroxypropylcellulose) (HPC)) is reported as 89 % of control. For the same compound, the T/C (dose: 3.0 mg/kg/injection, schedule: Q01DX009 (ip), vehicle: Klucel (hydroxypropylcellulose) (HPC)) was 95 % of control, the T/C (dose: 5.0 mg/kg/injection, schedule: Q04DX003 (ip), vehicle: Klucel (hydroxypropylcellulose) (HPC)) was 92 % of control and the T/C (dose: 10.0 mg/kg/injection, schedule: Q04DX003 (ip), vehicle: Klucel (hydroxypropylcellulose) (HPC)) was 92 % of control.
In the case of `Nc1nc(C=O)c(-c2cccc3ccccc23)c(=O)[nH]1`, the T/C [14] is reported as 113 % of control and the T/C [15] is reported as 150 % of control.
`COc1ccc(CCN2COc3ccc4ccc(=O)oc4c3C2)cc1OC` was tested, and the T/C (dose: 132.0 mg/kg/injection, schedule: Q01DX009 (ip), vehicle: saline with Tween-80) was 100 % of control, the T/C [7] was 115 % of control and the T/C (dose: 300.0 mg/kg/injection, schedule: Q01DX009 (ip), vehicle: saline with Tween-80) was 115 % of control.
With `CCCCCCCCOB(OCCCCCCCC)OCCCCCCCC` the T/C (dose: 25.0 mg/kg/injection, schedule: Q04DX003 (ip), vehicle: saline with Tween-80) was 91 % of control, the T/C (dose: 50.0 mg/kg/injection, schedule: Q04DX003 (ip), vehicle: saline with Tween-80) was 100 % of control and the T/C [14] was 91 % of control and 100 % of control.
In the case of `COc1cc2c(c(OC)c1OC)-c1ccc(OC)c(=O)cc1[C@@H](NC(=O)c1ccccc1)CC2`, the T/C (dose: 0.06 mg/kg/injection, schedule: Q01DX009 (ip), vehicle: saline sonified) is reported as 112 % of control, the T/C (dose: 0.12 mg/kg/injection, schedule: Q01DX009 (ip), vehicle: saline sonified) is reported as 116 % of control and the T/C (dose: 0.5 mg/kg/injection, schedule: Q01DX009 (ip), vehicle: saline sonified) is reported as 163 % of control. The T/C (dose: 1.0 mg/kg/injection, schedule: Q01DX009 (ip), vehicle: saline sonified) was 190 % of control, the T/C (dose: 2.0 mg/kg/injection, schedule: Q01DX009 (ip), vehicle: saline sonified) was 254 % of control and 109 % of control and the T/C (dose: 3.3 mg/kg/injection, schedule: Q04DX003 (ip), vehicle: saline) was 159 % of control. The T/C (dose: 4.0 mg/kg/injection, schedule: Q01DX009 (ip), vehicle: saline sonified) was 272 % of control, the T/C (dose: 5.0 mg/kg/injection, schedule: Q04DX003 (ip), vehicle: saline) was 200 % of control and the T/C (dose: 6.0 mg/kg/injection, schedule: Q01DX009 (ip), vehicle: saline sonified) was 162 % of control. For the same compound, the T/C (dose: 7.5 mg/kg/injection, schedule: Q04DX003 (ip), vehicle: saline) was 204 % of control.
With `O=C(O)C1CC2c3ccccc3C1c1ccccc12` (centres undefined) the T/C [8] was 90 % of control, the T/C [9] was 95 % of control and the T/C [10] was 109 % of control.
With `O=S(=O)(O)CCN(CCO)CCO` the T/C [2] was 87 % of control, the T/C (dose: 100.0 mg/kg/injection, schedule: Q04DX003 (ip), vehicle: saline) was 109 % of control and the T/C (dose: 200.0 mg/kg/injection, schedule: Q04DX003 (ip), vehicle: saline) was 104 % of control. For the same compound, the T/C (dose: 400.0 mg/kg/injection, schedule: Q01DX009 (ip), vehicle: saline) was 87 % of control and the T/C (dose: 400.0 mg/kg/injection, schedule: Q04DX003 (ip), vehicle: saline) was 95 % of control.
In the case of `CCCCOC(=O)c1ccc(NC(=O)NCCC)cc1`, the T/C [14] is reported as 104 % of control, the T/C (dose: 200.0 mg/kg/injection, schedule: Q04DX003 (ip), vehicle: saline with Tween-80) is reported as 100 % of control and the T/C [15] is reported as 109 % of control.
`CC/C(=C(\CC)c1ccc(OCCN(CC)CC)cc1)c1ccc(OCCN(CC)CC)cc1` was tested, and the T/C (dose: 12.5 mg/kg/injection, schedule: Q01DX010 (ip), vehicle: carboxymethylcellulose (CMC)) was 100 % of control and the T/C (dose: 25.0 mg/kg/injection, schedule: Q01DX010 (ip), vehicle: carboxymethylcellulose (CMC)) was 105 % of control.
In the case of `Nc1ncnc2c1ccn2C1OC2COP(=O)(O)OC2C1O` (centres undefined), the T/C (dose: 0.63 mg/kg/injection, schedule: Q01DX010 (ip), vehicle: saline) is reported as 100 % of control, the T/C (dose: 1.25 mg/kg/injection, schedule: Q01DX010 (ip), vehicle: saline) is reported as 110 % of control and the T/C [1] is reported as 150 % of control.
